The values below come from patent publication US20070122849A1, “Rhesus monkey P2X7 purinergic receptor and uses thereof” (priority 2005, published 2007).

Assay [1] deals with rhP2X7 receptor. Nature of the assay: rhP2X7 receptor activity in stably transfected HEK293 cells (calcium flux and change in membrane potential after agonist activation). In kind it is cell-based, Macaca mulatta (Rhesus monkey). The conditions noted are these: recombinant rhP2X7 receptor. The method, then:
RhP2X7 receptor activity in the stably transfected HEK293 cells was monitored by measuring calcium flux and change in membrane potential subsequent to activation with potent agonists (ATP, Bz-ATP). The membrane potential was measured using the following protocol.
Stably transfected recombinant HEK293 cells were plated into the wells of a 384-well Costar plates (25 μL/well) in growth medium (DMEM without pyruvate (Invitrogen-11965-084) with 10% FBS (Invitrogen 10082-139), 100 U/ml P/S (Invitrogen 15140-148), and 100 ug/mL hygromycin (Roche, 843555) and the plates incubated for 24 hours at 37° C., 5% CO2. Then, 25 μL of membrane potential buffer (Blue dye, Molecular Devices, Sunnyvale, Calif.) was added to the medium and the cells incubated for 30 minutes at 37° C., 5% CO2. Next, about 30 to 100 nL of either analyte or antagonist control or 10 μL agonist 3′-O-(4-benzoylbenzoyl)-ATP (Bz-ATP) (at an EC80) was added to the medium in separate wells of the plates. After incubating the plates for 30 minutes at 37° C., 5% CO2, fluorescence was read using a fluorometric plate reader (FLIPR, Molecular Devices). Data were analyzed using the formula EC50=using (Max−Min); Signal to Noise Ratio (S/B)=Max/Min; Z′ Factor=1−[3*SD of Max)+(3*SD of Min)/(mean of Max−mean of Min).
Calcium flux was measured using the following FLIPR Calcium Flux Assay protocol (Molecular Devices, Sunnyvale, Calif.). […]

For assay [2], the system named is rhP2X7 receptor. The assay can be described thus: calcium flux protocol for high throughput screen using cells that express the rhP2X7 receptor. In kind it is cell-based, Macaca mulatta (Rhesus monkey). As to conditions: agonist used in the example screening protocol; source of the value not stated. The method, then: The following is an example of a calcium flux protocol that can be used in a high throughput screen using cells that express the rhP2X7 receptor. The cells are grown to about 75-85% confluence, rinsed with DPBS (5.33 mM KCl, 0.44 mM KH2PO4, 0.3 mM Na2HPO4, 4 mM NaHCO3, 0.1% Glucose, 138 mM N-methyl glucamine), and dissociated with 0.05% trypsin. Then, about 20,000 cells are plated into multiple of the wells of multiwell plates in complete growth medium. The cells are incubated at 37° C. and 5% CO2 for about 20 to 24 hours. Next, about 20 μL FLUO-4 loading buffer (Invitrogen) is added to each of the wells and the cells incubated at RT for 60 minutes. Then, about 10 μL aliquots of each analyte to be tested (final concentration in DMSO about 0.1%) diluted in TR-40 quenching solution (Sigma #T2397) is added to a well containing cells. Controls include antagonists such as KN-62 and Ox-ATP and agonists such as Bz-ATP (at an EC80). The cells are incubated for about 10 minutes at RT.

`Nc1ncnc2c1ncn2[C@@H]1O[C@H](COP(=O)(O)OP(=O)(O)OP(=O)(O)O)[C@@H](O)[C@H]1O` [ATP]: the EC50 – broadly, the concentration giving half of the maximal effect – in assay [1] was roughly 3000 µM.

On to `Nc1ncnc2c1ncn2[C@@H]1O[C@H](COP(=O)(O)OP(=O)(O)OP(=O)(O)O)[C@@H](OC(=O)c2ccc(C(=O)c3ccccc3)cc2)[C@H]1O` [Bz-ATP, 3′-O-(4-benzoylbenzoyl)-ATP], for which the concentration giving a half-maximal response (EC50) in assay [1] is roughly 150 µM.

`Nc1ncnc2c1ncn2[C@@H]1O[C@H](COP(=O)(O)CP(=O)(O)OP(=O)(O)O)[C@@H](O)[C@H]1O` [a,b-methylene ATP]: the EC50 in assay [2] was determined as 350 µM.
